Experimental data published in patent US20250092360A1, “METHODS AND COMPOSITIONS FOR GENERATING SOMATOSTATIN+ INTERNEURONS FROM HUMAN FOREBRAIN NEURAL PROGENITOR CELLS” (Trailhead Biosystems Inc., priority 2023, published 2025).
Several values for one entry are separate records, joined by “and”; a condition that tells them apart may be missing. Equal values may be shown once. Entries after “also recorded” stand apart in the source; their conditions may differ.

How the values were obtained:
[1] = tested on: forebrain-committed neural progenitor cells; test: Factor criticality analysis, stage 5 recipe; type: cell-based, human; conditions: for contribution to the expression of SST: stage 5, experiment of FIG. 28, in words; for effect on PVALB expression / effect on Somatostatin expression: stage 5, experiment of FIG. 30, in words
Procedure: To assess the impact of elimination of each validated factor, dynamic profile analysis was again used to compare the expression levels of genes of interest in the absence of each finalized factor while the others were present in the media.
In the stage 5 recipe, each of seven finalized factors was removed while the other six factors remained present in the media and the expression levels of SST and PVALB were assessed compared to the presence of all seven factors. […] Thus, BDNF, (−)-Indolactam-V, and 2-phosph-L-Ascorbic Acid were included in the stage 5 recipe. […] Thus, they were excluded from the recipe. […] Therefore, these effectors were included in the stage 5 recipe for SST maturation.

[2] = tested on: forebrain-committed neural progenitor cells; test: HD-DoE stage 5, 12-factor experiment (96 combinatorial media): Somatostatin expression; type: cell-based, human; conditions: for impact on expression of Somatostatin: FIG. 26 dynamic profile, in words; for factor contribution, expression of Somatostatin: positive, 12-factor experiment of FIG. 25
Procedure: In another HD-DoE experiment, the results of which are shown in FIG. 25, cells were differentiated in 96 different combinatorial media made of 12 factors. These cells were treated with stage 1 to stage 4 medium for a total of 12 days prior to the experiment. […] In this model, we focused on maximum expression of Somatostatin gene expressed in somatostatin (+) interneurons. When the model was optimized for maximum expression of Somatostatin, BDNF, 2-phosph-L-Ascorbic Acid, O-LPA, N2 and Prostratin had the highest factor contributions, 1.75, 10.6, 2.7, 9.2 and 6.4 respectively. […]

[3] = tested on: forebrain-committed neural progenitor cells; test: HD-DoE stage 5, 8-factor experiment (JQ1, Indolactam-V ...): Somatostatin expression; type: cell-based, human; conditions: for impact on expression of Somatostatin: FIG. 21/22, in words; for factor contribution, expression of Somatostatin: positive, 8-factor experiment of FIG. 21
Procedure: To further guide the differentiation of forebrain-committed neural progenitor cells to somatostatin interneuron cells at stage 5, HD-DoE experiments were performed for 3 days after termination of stage 4 treatment. At this time, we focused on maximum expression of SST that was expressed in Somatostatin (+) interneurons and minimum expression of Parvalbumin that is another type of interneurons. This 8-factor experiment included JQ1, (−)-Indolactam-V, Oleic acid, BDNF, IGF-1, 2-phospho-L-Ascorbic acid, Albumax, MK2206. When the model was maximized for expression of Somatostatin, six effectors were identified that could increase its expression levels, including (−)-Indolactam-V, Oleic acid, BDNF, 2-phospho-L-ascorbic acid, Albumax, and MK2206, as shown in FIG. 21. Using dynamic profile analysis, the results of which are shown in FIG. 22, the model was modified to achieve the maximum expression level of Somatostatin and therefore (−)-Indolactam-V, BDNF, and 2-phospho-L-ascorbic acid were included while JQ-1, Oleic acid, Albumax and MK2206 were excluded. Considering the model at different optimization settings for maximum differentiation of cells toward ventral forebrain, the recipe for stage 5 of differentiation included (−)-Indolactam-V, BDNF, IGF-1, and 2-phospho-L-ascorbic acid from this HD-Doe experiment.

[4] = tested on: forebrain-committed neural stem cells; test: HD-DoE stage 2, 12-factor experiment: NKX2-1 expression; type: cell-based, human; conditions: for impact on expression of NKX2-1: model / dynamic profile, in words
Procedure: To further guide the differentiation of forebrain-committed neural stem cells to ventral forebrain neural stem cells at stage 2, a HD-DoE experiment was performed for 3 days after termination of stage 1 treatment. […] This 12-factor experiment included LDN193189, BMP7, PD0325901, MK2206, A8301, XAV939, CHIR99021, Purmorphamine, SANT-1, AGN193109, TTNPB and GSI-XX. […]

[5] = tested on: human pluripotent stem cells; test: HD-DoE stage 1, first 12-factor experiment: gene expression (qPCR) after 3-day treatment; type: cell-based
Excerpt: This example utilizes a method of High-Dimensional Design of Experiments (HD-DoE), as previously described in Bukys et al. (2020) […] 23:101346. The method employs computerized design geometries to simultaneously test multiple process inputs and offers mathematical modeling of a deep effector/response space. The method allows for finding combinatorial signaling inputs that control a complex process, such as during cell differentiation. It allows testing of multiple plausible critical process parameters, as such parameters impact output responses, such as gene expression. Because gene expression provides hallmark features of the phenotype of, for example, a human cell, the method can be applied to identify, and understand, which signaling pathways control cell fate. In the current example, the HD-DOE method was applied with the intent to find conditions for induction of […] neural progenitor-expressed genes, directly from the pluripotent stem cell state. To develop the recipe for each stage, the impact of agonists and antagonists of multiple signaling pathways (herein called effectors) on the expression of two sets of 53 pre-selected genes, after a 3-day treatment, has been tested and modeled. These effectors are small molecules or proteins that are commonly used during stepwise differentiation of stem cells to specific fates. Choice of the effectors were based on current literature on neural induction in forebrain region of developing brain and differentiation of stem cells to neural progenitors. To test the effectors, experiments with at least 8 factors were designed that can assess the response of cells to 48 or more different combinations of effectors in a range of concentrations. To analyze the models, we focused on expression of genes involved in development and patterning of the anterior neuroectoderm and forebrain including OTX2 (Hoch et al. (2015) Cell Reports 12:482-494), SIX3 (Lagutin et al. (2003) Genes & Development 17:368-379) and FEZF2 (Zhang et al. (2014) Development 141:4794-[…]). At later stages we focused on dorsoventral patterning of telencephalon and gene expressed in ventral forebrain including NKX2-1 and absence of PAX6 which is a dorsal forebrain marker (Stoykova et al. (2000) J. Neurosci. 20:8042-8050). The impact of each effector on gene expression level is defined by a parameter called factor contribution that is calculated for each effector during the modeling. To identify the recipe for stage 1 of differentiation, 96 different combinations of effectors generated using Design-of-Experiments compression through D-optimality were robotically prepared. The effector combinations were prepared in a basal media and were subsequently added to the cells, which were then allowed to differentiate. Three days later RNA extraction was performed, and gene expression was obtained using quantitative PCR analysis. The data were normalized and modeled using partial least squares regression analysis to the effector design, resulting in the generation of gene-specific models, which after model tuning for maximal Q2 predictive power, provided explanation of the effectors ability to control the expression of individual genes, combinatorically, and individually. Solutions within the tested space could then be explored to address desirability. Optimizing for maximal expression of SIX3 at 3300 and FEZF2 1355 expression values led to robust solutions. This model was derived from testing 12 effectors including AGN193109, LDN193189, CHIR99021, XAV939, IGF2, Purmorphamine, 4-oxo-RA, TTNPB, SR11237, FGF8, PD0325901 and […]. […] The model was also optimized for maximum expression of FEZF2 separately at 3576 expression value to find any additional factors that can boost expression of forebrain genes. […] To find the set of factors that have the potential to optimize all 3 genes in this experiment, a new assessment was done through dynamic profile analysis with focus on maximal expression of OTX2, FEZF2 and SIX3.

[6] = tested on: forebrain-committed neural progenitor cells; test: HD-DoE stage 5, 8-factor experiment (GDNF, BDNF, NT-3 ...): Somatostatin expression; type: cell-based, human
Procedure: To investigate the effects of other factors on differentiation of forebrain-committed neural progenitor cells to Somatostatin interneuron cells, an additional HD-DoE experiment was performed for 3 days on cells that were treated with stage 1 to stage 4 medium for a total of 12 days prior to the new experiment. This experiment, the results of which are shown in FIG. 23, included eight effectors, GDNF, BDNF, NT-3, ß-NGF, Linoleic acid, 5-Cholesten-3β, LIF and TGF-β3. In this model, we focused on maximum expression of Somatostatin gene expressed in Somatostatin (+) interneurons (Urban-Ciecko and Barth (2016) Nature Reviews Neurosci. 17:401-409). When the model was optimized for maximum expression of Somatostatin, BDNF, NT-3, beta-NGF and Linoleic acid had the highest factor contributions, 25.7, 2, 19.9, 23.5, respectively.
Therefore, the latter were excluded in the recipe.

## O=C1O[C@H]([C@@H](O)CO)C(O)=C1OP(=O)(O)O [2-phospho-L-ascorbic acid]
[1]
  contribution to the expression of SST: positive contributions
  effect on PVALB expression: not to PVALB expression
  effect on Somatostatin expression: contribute
[2]; listed as 2-phosph-L-Ascorbic Acid
  impact on expression of Somatostatin: significant positive effect; also recorded: positive impact
[2]
  factor contribution, expression of Somatostatin: 10.6
[3]
  impact on expression of Somatostatin: increase
  factor contribution, expression of Somatostatin: 4
[3]; listed as 2-phospho-L-Ascorbic acid
  impact on expression of Somatostatin: positive impact

## Cc1cc(SCc2sc(-c3ccc(C(F)(F)F)c(F)c3)nc2C)ccc1OCC(=O)O [GW0742]
[2]
  impact on expression of Somatostatin: significant negative impact

## CCCCCCCC/C=C\CCCCCCCC(=O)OC[C@@H](O)COP(=O)(O)O [O-LPA]
[2]
  factor contribution, expression of Somatostatin: 2.7

## CC(=O)O[C@@]12C[C@@H](C)[C@@]3(O)[C@@H](C=C(CO)C[C@]4(O)C(=O)C(C)=C[C@@H]34)[C@@H]1C2(C)C [Prostratin]
[1]
  effect on PVALB expression: not to PVALB expression
  effect on Somatostatin expression: contribute
[2]
  impact on expression of Somatostatin: significant positive effect; also recorded: positive impact
  factor contribution, expression of Somatostatin: 6.4

## Cc1nn(-c2ccccc2)c(C)c1/C=N/N1CCN(Cc2ccccc2)CC1 [SANT-1]
[4]
  impact on expression of NKX2-1: negative impact
[4]; negative role, model optimized for maximum NKX2-1
  factor contribution, expression of NKX2-1: 26.3

## CC(=O)C(=O)[O-].[Na+] [Sodium Pyruvate]
[2]
  impact on expression of Somatostatin: significant negative impact

## C/C(=C\c1ccc(C(=O)O)cc1)c1ccc2c(c1)C(C)(C)CCC2(C)C [TTNPB]
[4]
  impact on expression of NKX2-1: negative impact
[5]; FIG. 2 legend
  factor contribution, important input for high expression of SIX3: 23.7
[5]; dynamic profile / model, in words
  impact on expression of OTX2: negative impact
[5]; dynamic profile analysis, in words
  impact on expression of SIX3: negative impact
[5]; negative effect, model optimized for maximal SIX3
  factor contribution, expression of SIX3: 21
[5]; negative impact, model optimized for maximum OTX2
  factor contribution, expression of OTX2: 29 and 28.8
[5]; positive impact, model optimized for maximum FEZF2 at 3576
  factor contribution, expression of FEZF2: 24

## COC(=O)CCC(=O)C(=O)OC [dm-αKG]
[2]
  impact on expression of Somatostatin: significant negative impact

## (−)-Indolactam-V
[1]
  contribution to the expression of SST: positive contributions
[3]
  impact on expression of Somatostatin: increase; also recorded: positive impact
  factor contribution, expression of Somatostatin: 5.2

B1: BDNF: brain-derived neurotrophic factor; BDNF pathway agonist (protein, UniProt P23560 129-247, looked up)
Neurotrophic factor BDNF: HSDPARRGELSVCDSISEWVTAADKKTAVDMSGGTVTVLEKVPVSKGQLKQYFYETKCNPMGYTKEGCRGIDKRHWNSQCRTTQSYVRALTMDSKKRIGWRFIRIDTSCVCTLTIKRGR
modifications: Neurotrophic factor BDNF
notes: brain-derived neurotrophic factor; BDNF pathway agonist
[1]
  contribution to the expression of SST: positive contributions
  effect on PVALB expression: not to PVALB expression
  effect on Somatostatin expression: contribute
[1]; stage 5, experiment of FIG. 29, in words
  effect on expression of Somatostatin: contribute to the maximal expression
[2]
  impact on expression of Somatostatin: significant positive effect; also recorded: positive impact
  factor contribution, expression of Somatostatin: 1.75 and 1.7
[3]
  impact on expression of Somatostatin: increase; also recorded: positive impact
  factor contribution, expression of Somatostatin: 8.1
[6]; FIG. 24 dynamic profile, in words
  impact on expression of Somatostatin: significant effect; also recorded: positive effect; also recorded: positive impact
[6]; positive, 8-factor experiment of FIG. 23
  factor contribution, expression of Somatostatin: 25.7
